Here are results for four molecules from patent US20260315467A1, “PHARMACEUTICAL COMBINATION OF FAK INHIBITOR AND EGFR-TKI, AND USE” (INXMED (NANJING) CO., LTD., priority 2022, published 2026).

In one test the test system is lung cancer KPL cells. Kind of test: White light microscope observation of lung cancer KPL cells after 48 h drug incubation (Examples 1-3). The class given is cell-based.
Another test has as its system Calreticulin. Kind of test: Calreticulin release and exposure in HCC827 cells after FAK silencing combined with AZD9291. It counts as cell-based. The conditions noted are these: FAK siRNA 50 nM, then 0.3 nM AZD9291, 48 hours. On the procedure:
In an in vitro assay, siRNA technology was used to reduce the expression level of FAK, which was combined with AZD9291 for 48 hours; a flow cytometer was used to detect the expression of Calreticulin, the main target of ICD.
(§1) Assay antibodies: Recombinant Alexa Fluor® 647 Anti-Calreticulin antibody (Abcam, ab196159), Annexin V apoptosis detection kit (Invitrogen, A35110).
HCC827 cells were transfected with control siRNA or FAK siRNA at a final concentration of 50 nM, respectively. After 24 hours of transfection, 0.3 nM AZD9291 was added and the cells were treated for 48 hours. The Calreticulin antibody was used for fluorescent staining, and the staining results were analyzed by a flow cytometer.

The next test concerns lung cancer cells HCC827. Kind of test: Apoptosis of HCC827 cells after FAK silencing combined with AZD9291 (Annexin V, flow cytometer). The class given is cell-based. The conditions noted are these: FAK siRNA 50 nM, then 0.3 nM AZD9291, 48 hours. On the procedure: In an in vitro assay, siRNA technology was used to reduce the expression level of FAK, which was combined with AZD9291 for 48 hours; a flow cytometer was used to detect the apoptosis in control and FAK-silenced cells.
as §1
HCC827 cells were transfected with control siRNA or FAK siRNA at a final concentration of 50 nM, respectively. After 24 hours of transfection, 0.3 nM AZD9291 was added and the cells were treated for 48 hours. The cells were stained using the Annexin V kit and detected using a flow cytometer. The values of early and late apoptosis of the cells were compared with those of the DMSO control group, and Graphpad 8.0 was used for graphing.

In the next test the test system is colon cancer MC38 cell. Kind of test: In vivo anti-tumor efficacy in subcutaneous allograft tumor model of colon cancer MC38 cell in C57BL/6 mice. Further details: species or system mouse. The conditions noted are these: PD-L1 antibody 5 mg/kg i.p. BIW. The text has this: Mice: Female C57BL/6 mice aged 6-8 weeks were purchased from Shanghai Slack Laboratory Animal Co., Ltd. After the animals arrived, they were raised for acclimatization in the assay environment before the assay. The animals were raised in cages (5 animals per cage) with IVC (independent air supply system) in a SPF animal room. All the cages, padding and drinking water were sterilized before use. All the experimenters wore protective clothing and latex gloves when operating in the animal room. The animal information card for each cage indicated the number, sex, strain, receiving date, administration plan, assay number, group and assay start date of the animals in the cage. […]
Colorectal cancer cells MC38 (from Nanjing Kebai Biotechnology Co., Ltd., article number: CBP60825) were maintained and passaged by InxMed (Nanjing) Co., Ltd. The cells were cultured in monolayer in vitro, and the culture conditions were DMEM medium with 10% fetal bovine serum, 37° C. and 5% CO2 incubator. […] When the cells were in exponential growth period and the saturation reached 80% to 90%, the cells were collected, counted and inoculated. […]
The diameter of a tumor was measured with a vernier caliper 3 times a week. […]
Referring to the tumor volume on the first day after grouping, the tumor growth inhibition rate TGI (%) was calculated according to the following formula. […]

Setting [1] is: Example 3, IN10018 10 μM, Alflutinib 4.7 μM, or both.
Where [2] appears, read: Example 1, IN10018 10 μM, AZD9291 10 μM, or both.
Where [3] appears, read: Example 2, IN10018 10 μM, Almonertinib 4.7 μM, or both.

`C=CC(=O)Nc1cc(Nc2nccc(-c3cn(C)c4ccccc34)n2)c(OCC(F)(F)F)nc1N(C)CCN(C)C` [Alflutinib]: the “condition of cells under microscope” value in the test with lung cancer KPL cells (setting [1]) is reported as “poor condition”.
Regarding `C=CC(=O)Nc1cc(Nc2nccc(-c3cn(C)c4ccccc34)n2)c(OC)cc1N(C)CCN(C)C` [AZD9291, Osimertinib], the “release and exposure of Calreticulin after FAK silencing” value in the test with Calreticulin is reported as “significantly enhanced”. The “condition of cells under microscope” value with lung cancer KPL cells (setting [2]) is recorded as “poor condition”. The “late apoptosis in the FAK silencing group compared with the control group” value in the test with lung cancer cells HCC827 is reported as “significantly enhanced”. This molecule also came in with a TGI in the test on colon cancer MC38 cell (day 14, AZD9291 20, IN10018 25 mg/kg p.o. QD) of 24.4%. Also, the “Tumor volume on day 14” value in the test on colon cancer MC38 cell (day 14 after group administration, AZD9291 20, IN10018 25 mg/kg p.o. QD, mean ± standard error of the mean) is 1518.1±728.8 mm^3.
As to `COc1cc(C(=O)NC2CCN(C)CC2)c(F)cc1Nc1ncc(C(F)(F)F)c(Oc2cccc3c2C(=O)N(C)C3)n1` [IN10018], the “condition of cells under microscope” value in the test on lung cancer KPL cells (setting [2]), with lung cancer KPL cells (setting [3]) and in the test with lung cancer KPL cells (setting [1]) was “better condition” in each case.
Regarding `C=CC(=O)Nc1cc(Nc2nccc(-c3cn(C4CC4)c4ccccc34)n2)c(OC)cc1N(C)CCN(C)C` [Almonertinib], the “condition of cells under microscope” value with lung cancer KPL cells (setting [3]) was “poor condition”.
